Assay results as given in a melting point compilation (Tetko et al.; mined from patent text by program, amines drawn as free bases though some values may be those of a salt).

| SMILES | melting point [°C] |
| --- | --- |
| COc1cc(OC)n2sc(=NS(=O)(=O)c3c(-c4nnn(C)n4)cnn3C)nc2n1 | 182 to 183 |
| COCCc1nc2c(N)nc3ccccc3c2n1CCOCCNS(C)(=O)=O | 114 to 117 |
| O=C1COCC(=O)NCCOCCN1 | 180 to 181 |
| N#Cc1ccc(N=CNc2ccc(C#N)cc2)cc1 | 214 to 217 |
| CCN(CC)S(=O)(=O)c1cc2[nH]c(=O)c(=O)[nH]c2cc1[N+](=O)[O-] | > 360 |
| CCN(CCNS(C)(=O)=O)c1ccc(N)c(C)c1 | 128 to 130 |
| CCCS(=O)(=O)Cc1cc2oc(S(N)(=O)=O)cc2cn1 | 167 to 169 |
| CCOC(=O)c1c[nH]c(=O)s1 | 127 |
| N#Cc1cnc2ccsc2c1Nc1ccc(Cl)cc1Cl | 198 to 200 |
| OCc1cc(I)ccc1F | 42 |
| Oc1ccc(C(=Cc2ccccc2)c2ccc(O)c(O)c2O)c(O)c1O | 142 to 143 |
| CNC1C(O)CC2C3CCc4cc(OC(=O)C(C)(C)C)ccc4C3CCC21C (stereo not given) | 196 to 199 |
| COc1cc(C)cc(OC)c1CCCCCNC(=O)[C@@H](CCCCNC(=O)C=Cc1ccccc1)NC(=O)c1cc2ccccc2n1CC(=O)O | 172 |
| COc1cc2cc(C(C#N)(C(C)CC#N)N3CCOCC3)sc2cc1OC (stereo not given) | 162 to 165 |
| COCOc1ccc(C(=O)CI)c(OCc2ccccc2)c1 | 66 to 68 |
| Cc1ccc(S(=O)(=O)C(=[N+]=[N-])C(=O)C(C)(C)C)cc1 | 120 to 122 |
| CNC(=O)N1C[C@@H](Oc2cccc(C(F)(F)F)c2)[C@@H]1C (relative stereo) | 89 to 91 |
| COC(=O)C#CCCc1c(C)c(OC)c(C)c(C)c1OC | 71 to 72 |
| NC(=O)c1c(N)cccc1OCCO | 149 to 151 |
| Cc1c(C)c2c(c(C)c1NC(=O)NCCO)C(c1ccc(C(C)C)cc1)CO2 (stereo not given) | 186 to 188 |
| CC(C)C1NS(=O)(=O)N(COC(=O)c2c(Cl)cccc2Cl)C1=O (stereo not given) | 151 to 152 |
| CCOC(=O)C(=NOC)c1nc(Cl)cc(NC=O)n1 | 116 to 119 |
| O=C(O)c1cc(Br)c(Cl)s1 | > 200 |
| O=P1(c2cccc(C(F)(F)F)c2)OCc2ccccc21 (stereo not given) | 102 to 106 |
| CC1Cc2cc3c(cc2C(c2ccc(N)cc2)=NN1)OCO3 (stereo not given) | 118 to 120 |
| CC(C)(C)ON(O)C(=O)C(C)(C)CSc1ccc(Oc2ccc(Cl)cn2)cc1 | 90.8 to 91.9 |

| SMILES | melting point [°C] |
| --- | --- |
| CC(CC(=O)NCc1ccccc1)C(N)=O (stereo not given) | 127 to 129 |
| COc1ccc(OC2=CCNCC2)cc1 | 45 to 46 |
| CCCCN1CCCC1CNC(=O)c1cc(Cl)cc2c1SCCN2C (stereo not given) | 108 to 109 |
| CC(=O)CCC(CCC(C)=O)(C(C)=O)C(C)=O | 59 |
| CC12CCC3c4ccc(OCc5ccccc5)c([N+](=O)[O-])c4CCC3C1CCC2=O (stereo not given) | 198 to 199 |
| CC1=C(C(=O)OC(C)(C)C)C(c2cccc(F)c2)C(C(=O)OC(C)(C)C)=C(C)N1 | 178 to 179 |
| CC1Sc2nccn2C1(C)C(O)C=Cc1ccco1 (stereo not given) | 149 to 150 |
| COc1ccc2nc(CBr)sc2c1 | 78 to 81 |
| CCN(CC)C(=O)c1cc(C)nc([N+](=O)[O-])c1 | 90 to 91 |
| O=C(c1ccccc1)c1cc(Cl)cc2c1S(=O)CC2C(=O)O (stereo not given) | 172 to 174 |
| CCOC(=O)CN(SN(C)C(=O)Oc1cccc2c1OC(C)(C)C2)C(=O)CC | 108 to 109 |
| CC(N=C(O)C(Cl)=C(Cl)C(=O)O)c1ccccc1 (stereo not given) | 62 to 65 |
| Cc1cccc2c(/C=C/C(=O)O)cc(C(C)C)c(O)c12 | 122 to 123 |
| COc1ccc2[nH]cc(/C=C/c3cc(/C=C/c4ccc(OCc5ccccn5)cc4OC)[nH]n3)c2c1 | 189 to 195 |
| CCOC(=O)c1cnc2cc(C(C)(C)C)ccc2c1O | 279 to 281 |
| CC1=CC2(C=CC1(C)C(Cl)(Cl)Cl)SCC(C(C)(C)C)CS2 (stereo not given) | 141 to 143 |
| CCc1noc(NC(C)=O)c1Cl | 113 to 114 |
| CCCCCC(=O)Nc1ccc2nnc(C(=O)OCC)c(O)c2c1 | 265 to 266 |
| CN(C)C(=S)SC(C[N+](=O)[O-])c1cc([N+](=O)[O-])ccc1Cl (stereo not given) | 120 to 121 |
| CC1(C)C(=O)N(c2ccc(C#N)c(C(F)(F)F)c2)C(=O)N1CCCC(=O)O | 179 to 180 |
| CC1(C)CCCN(C(=O)CN(C(=O)CNC(=O)Nc2cccc(CCO)c2)c2ccccc2)C1 | 175 |
| Clc1ccc(Oc2cncc3sccc23)cc1 | 87 to 89 |
| CCSc1nc(N2CCNCC2)nc2cccnc12 | 98 to 101 |
| COc1ccc(Cc2nc3cc(Cl)cc(Br)c3o2)cc1OC | 123 to 124 |
| O=C(C1CCC1)N1CCSCC1 | 39 to 40 |
| CC1(C2CCCC2)Cc2cc(OCCCCCCC(=O)O)c(Cl)c(Cl)c2C1=O (stereo not given) | 107 to 110 |

Continued, values first:

| melting point [°C] | SMILES |
| --- | --- |
| 163 to 164 | COc1ccc(/C=C/C(=O)c2c(OC)cc(OC)cc2OC(=O)[C@H](C)NC(=O)OCc2ccccc2)cc1 |
| 93.6 | O=C1CC(c2cccc(Cl)c2)c2cc(C(c3ccc(Cl)cc3)n3ccnc3)cc3c2N1CCC3 (stereo not given) |
| 77.6 to 78.4 | CC(C)CN1CCN(C(=O)c2ccc(OCc3ccccc3)cc2)CC1 |
| 153 to 155 | CCOC(=O)CN1C(=O)SC(Cc2ccc(N3CCC(NCC(O)c4ccc(O)c(NS(C)(=O)=O)c4)CC3)cc2)C1=O (stereo not given) |
| 176 to 178 | COc1ccc(-c2c(-c3ccccc3)nc3n2CCS3)cc1OC |
| 209 to 210 | CCn1ncc(C(=O)c2ccc(S(C)(=O)=O)c(N3CCOC(O)C3)c2Cl)c1O (stereo not given) |
| 214 to 215 | NC(=S)NC[C@H]1CN(c2ccc(-n3cncn3)cc2)C(=O)O1 |
| 102 to 104 | C=C(c1ccc(Cl)cc1)c1ccc(NC(=O)OC(C)(C)C)c(C)c1 |
| 174 to 176 | CC(=O)NC[C@H]1CN(c2ccc(N3CCC(n4nnnc4N)CC3)c(F)c2)C(=O)O1 |
| 180 to 183 | Cc1nc2cnc(N3CCN(CCCC(=O)c4ccc(F)cc4)CC3)cc2[nH]1 |
| 188 to 193 | COC(=O)c1ccc(Cn2nc(OC)c3ccc(N)cc32)c(OC)c1 |
| 59 to 61 | CN1CCC(c2c[nH]c3ccc(Cn4cncn4)cc23)C1 (stereo not given) |
| 174 to 175 | COc1ccc(NC(=O)c2ccccc2)cc1NCc1ccc2c(c1)OCCO2 |
| 197 to 201 | CCOC(=O)C(Cc1c[nH]c2c(C(=O)c3ccc(Cl)cc3)cccc12)C(=O)OCC |
| 191 to 193 | Cc1c(-c2ccccc2)oc2c(C(=O)NCCCO)cccc2c1=O |
| 225 to 227 | CC1CN(c2cc3c(cc2F)C(=O)c2nc4ccccc4c(=O)n2-3)CCN1 (stereo not given) |
| 140 to 142 | CCCCNC(=O)NS(=O)(=O)c1c(C(=O)OCC)cnn1-c1ccc2ccccc2n1 |
| 156 to 157 | CCC(=O)c1ccc(Cl)c2nc3n(c12)CCCN3c1ccc(Cl)cc1Cl |
| 321 | CCC(=O)Nc1cccc2c1C(=O)c1cccc(NC(=O)CC)c1C2=O |
| 189 to 190 | NS(=O)(=O)c1ccc(N2CCN(CC[C@H]3OCCc4ccccc43)CC2)cc1 |
| 205 to 207 | CNC(=O)c1ccccc1Nc1nc(Nc2ccc3c(c2OC)CCCC(=O)N3CCOC)ncc1Cl |
| 180 to 182 | c1ccc(-n2c(C3=NCCN3)cc3ccccc32)cc1 |
| 96 to 97 | O=C(O)CCC(=NOCc1ccc(OCc2cc(-c3ccccc3)no2)cc1)c1ccccc1 |
| 178 to 180 | CCOC(=O)CNC(=O)c1nc2ccc(NCCCN3CCC(OC(c4ccccc4)c4ccccc4)CC3)nn2c1Cl |

| melting point [°C] | SMILES |
| --- | --- |
| 212 to 218 | Nc1ccc2c(c1)CN(CCC1CCCCN1S(=O)(=O)c1cccc3ccccc13)CC2 (stereo not given) |
| 240 | NS(=O)(=O)c1cccc(-c2cc(-c3nc(-c4ccc(F)cc4)cc(C(F)(F)F)n3)ccn2)c1 |
| 142 | O=C(O)c1ccc(C(F)(F)F)cc1-c1ccc2c(c1)OC[C@H](Cc1ccccc1)[C@H]2O |
| 118 to 120 | Cc1cnc(NC(=O)Nc2ccc(N3CCN(C(=O)Nc4ccc(OCCO)cc4C(F)(F)F)CC3)cc2)s1 |
| 111 to 113 | CC(=O)NC[C@H]1CN(c2ccc(-n3nccc3-c3ccc(F)cc3)c(F)c2)C(=O)O1 |
| 178 to 180 | CS(=O)(=O)Nc1ccncc1-c1ccc2cnc(Nc3ccc(N4CCOCC4)cc3)nn12 |
| 111 to 114 | CONC(=O)CC(C#Cc1ccccc1)c1ccc(OC)c(OC2CCCC2)c1 (racemic) |
| 108 to 111 | CCCCC1c2ccccc2-c2cc(Br)ccc2N1S(=O)(=O)c1ccc(OC)cc1 (stereo not given) |
| 135 | O=S(=O)(c1cccs1)N(CC1CC1)c1cccc2cc(-c3ncc(CCl)s3)[nH]c12 |
| 172 | Cn1cc(-c2ccccc2)c(=O)c(-c2cccc(Br)c2)c1 |
| 149 to 151 | CSc1cc(Oc2cccc(C(F)(F)F)c2)nc(C(=O)NN)c1 |
| 254 to 256 | FC(F)(F)c1ccc2nc(N3CCN(Cc4c(Cl)cccc4Cl)CC3)[nH]c2c1 |
| 130 to 135 | Cc1cc(C2=NN(C3=NCCS3)C(C)Cc3cc4c(cc32)OCO4)ccc1[N+](=O)[O-] (stereo not given) |
| > 250 | CC(=O)Nc1ccc2c(O)c(C(=O)NCc3ccc(Cl)cc3)cnc2c1 |
| 73 to 77 | CCN(C(=O)Nc1ccc(OC(F)(F)F)cc1)C1Cc2ccc(SC(C)(C)C(=O)O)cc2C1 (stereo not given) |
| 245 to 247 | CCNc1nc(C)c(-c2ccnc(Nc3ccc(N4CCNCC4)cc3)n2)s1 |
| > 350 | O=C1c2cccc3c4c(cc(c23)C(=O)N1O)OCOC4 |
| 179 to 180 | O=C(Nc1cccc(S(=O)(=O)C(F)(F)F)c1)c1c(O)ccc2ccccc12 |
| 147 to 148 | O=C1N[C@H](Cc2ccc(C(F)(F)F)cc2)[C@H](c2ccc(F)cc2F)O1 (racemic) |
| 300 to 320 | Cc1c(-c2ccccc2)sc2nc(N3CCOCC3)[nH]c(=O)c12 |
| 140 to 141 | N#Cc1c(N2CCCCC2)cc(-c2ccccc2)c2c1Cc1ccccc1-2 |
| 294 to 295 | N#Cc1ccc(-c2ccc(-c3ccc(C#N)cc3)o2)cc1 |
| 84 to 85 | CCSc1cn(C)cc(-c2cccc(C(F)(F)F)c2)c1=O |
| 196 to 197 | CCOC(=O)C(=O)Cc1ccnc2c1C(=O)c1ccccc1-2 |
